# Experimental data: patent US20230159436A1, “APPLICATIONS OF AMIDE ANALOGS OF TRITERPENES IN CURES OF CANCER AND OTHER DISEASES” (Pacific Arrow Limited, priority 2021, published 2023)
# Assays:
# [1] = Pharmacokinetic (PK) study: blood from cardiac puncture; assay type: in vivo, mice; conditions: IP 100 mg/kg, estimated
# Procedure: Pharmacokinetic (PK) Study: Blood from Cardiac Puncture • Method: • Drug-Treatment: • Mice: CD-1 female mice (8-10 weeks, 25-30 g) • mice were injected (IP) with Test Drug (10 mg/ml, in 10% DMSO-20% Tween-80 in PBS) at a dose of 100 mg/kg. • At 1 and 2 hours after drug treatments, individual animals were anesthetized with isoflurane. • blood was obtained by cardiac puncture (between the chest-ribs bones). Animals were then euthanized by cervical dislocation. • Plasma Isolation: • Blood (0.6-0.8 ml) was centrifuged (2000 g, 15 minutes). Plasma was collected from the top layer. • 1 volume of plasma was mixed with 3 volume of acetonitrile/0.005% TFA. Mixture was stored in −20° C. for 6 minutes. • Sample was centrifuged (16000 g, 10 minutes). Supernatant was subjected to HPLC analysis. • HPLC Analysis Conditions: • Column: C18 μBondapak • Solvent: 60% acetonitrile/0.005% TFA (Trifluoroacetic acid) • Gradient: isocratic • Flow rate and run time: 1 ml/min for 30 minutes • Detection wavelength: 207 nm • O.D. range: 0.05 full scale • Calculation: • Standard cures of Test Drug is constructed (Area/3000K=1 ug Test Drug) • Area of Test Drug peak from Sample is Recorded • Amount of Test Drug was calculated according to standard cures.
# MCF-7 = assay: MTT assay, breast (MCF-7); assay type: cell-based
# Procedure: Cells. HTB-9 (bladder), HeLa-S3 (cervix), DU145 (prostate), H460 (lung), MCF-7 (breast), K562 (leukemia), HCT116 (colon), HepG2 (liver), U2OS (bone), T98G (brain), SK-MEL-5 (Skin) and OVCAR 3, ES2 (ovary), Pancreas (Capan), Mouth (KB), Kidney (A498).
# MTT Assay. The procedure for MTT assay followed the method described by Carmichael et al. (1987) with modifications. The cells were seeded into a 96-well plate at for 24 hours before drug-treatment. The cells were then exposed to the drugs for 48, 72, or 96 hours. After the drug-treatment, MTT (0.5 mg/mL) was added to cultures and incubated for an hour. The formazan (product of the reduction of tetrazolium by viable cells) formed and was dissolved with DMSO and the O.D. at 490 nm, and was measured by an ELISA reader. The MTT level of the cells before drug-treatment was also measured (T0). The % cell-growth (% G) is calculated as: % G=(TD−T0/TC−T0)×100(1), where TC or TD represents O.D. readings of control or drug-treated cells.
# When T0>TD, then the cytotoxicity (LC) expressed as % of the control is calculated as: % LC=(TD−T0/T0)×100(2).
# K562 cells = assay: Apoptosis in K562 cells (Annexin V / propidium iodide); assay type: cell-based, human
# Procedure: Experiment 34: Apoptosis in K562 Cells Induced by Tig-S • 1. Cells: Human leukemia cells K562 cultured in RPMI1640 medium. • 2. Drug: Tig-S (1000× stock solution in DMSO). • 3. Start cells concentration: 500000/ml. • 4. Cells were cultured with drug (0-20 ug/ml) for Two days. • 5. Collect cells from culture (1-4 million) by centrifugation (136×g for 5 min. remove supernatant). • 6. Wash cells with 1 ml of cold PBS, collect cells by centrifugation (136×g, 5 min, remove supernatant). • 7. Re-suspend cells in 200 ul Binding buffer (10 mM HEPES, 140 mM NaCl, 2.5 mM CaCl2, pH 7.4). • 8. Stained cells by adding 10 ul Annexin V (Alexa Fluor 488, Invitrogen cat #A13201), and 2 ul Propidium iodide (1 mg/ml in water) to cell suspension. Mix. • 9. Sit at Room temperature for 15 min. • 10. Wash cells with 1 ml binding buffer. Collect cells by centrifugation. • 11. Re-suspend cells with in 1 ml of binding buffer for analysis by flow cytometry. • 12. Flow Cytometry analysis was performed in Baylor Core Facility with a LSRII instrument. • 13. Analysis: Control cells stained with PI or Annexin V-488 (Annexin V-FITC) alone were served as references. About 50000 cells were analyzed for each sample. • 14. Cell distribution in following groups: live, early apoptosis, late-apoptosis, total apoptosis and dead cells were determined. • 15.
half-life [1],IC50 of breast (MCF-7) (MCF-7) [µg/mL],Structure (SMILES),mechanism of cell-death (K562 cells)
about one,4.5,"CC=C(C)C(=O)OCC1(C)C(O)CCC2(C)C1CCC1(C)C2CC=C2C3CC(C)(C)C(O)C(O)C3(COC(=O)C(C)=CC)C(O)CC21C (stereo not drawn) [Tig-R, 24,28-O-Tigloyl-3β,16α,21β,22α,24β,28-hexahydroxyolean-12-ene]",
,,CC=C(C)C(=O)OCC1(C)C(O)CCC2(C)C1CCC1(C)C2CC=C2C3CC(C)(C)C(OC(=O)C(C)=CC)C(O)C3(CO)C(O)CC21C (stereo not drawn) [Tig-S],induces cell-death by the apoptosis mechanism
